PMC6014988, “Precision therapeutic targeting of human cancer cell motility” (Nature Communications, 2018)

Assays:
[1] = Three-day MTT cell growth inhibition assay, PC3M; format: cell-based, human; conditions: human, PC3M cells; PC3M; 3 days
Excerpt: (§1) Assays were in replicates of N = 3, and were repeated. […]
(§2) Values are the mean±SEM of a single experiment, in
(§3) replicates of N=4, repeated at least once (also N=4).
(§4) Supplementary Figure 1b. Synthetic round #2.

PC3M = assay: Three-day MTT cell growth inhibition assay, PC3M; format: cell-based, human
Excerpt: as §1, §2, §3, §4

[2] = Three-day MTT cell growth inhibition assay, PC3; format: cell-based, human; conditions: human, PC3 cells
PC3 = assay: Three-day MTT cell growth inhibition assay, PC3; format: cell-based, human; conditions: Homo sapiens, PC-3, 72 h, 3 days
[3] = Three-day MTT cell growth inhibition assay, 1542NPTX; format: cell-based, human; conditions: human, 1542NPTX cells
1542NPTX = assay: as above; format: cell-based, human; conditions: Homo sapiens, 72 h, 3 days
[4] = Three-day MTT cell growth inhibition assay, 1532CPTX; format: cell-based, human; conditions: human, 1532CPTX cells
1532CPTX = assay: as above; format: cell-based, human; conditions: Homo sapiens, 72 h, 3 days
[5] = system: human breast cancer LM2-4H2N cells; assay: Breast cancer orthotopic implantation and resection survival model; format: in vivo, mouse; conditions: 25 mg/kg oral gavage five times per week, post-surgery adjuvant setting
Description: Breast cancer: orthotopic implantation: Orthotopic implantation of 2 × 10^6 dTomato-LM2-4H2N cells in matrigel:PBS human breast cancer cells into 5–6 week old female SCID-Beige mice (Taconic), followed by resection of resultant primary tumor, provides a model wherein survival is dictated by metastatic burden, and was performed as described. KBU2046 treatment by oral gavage 5 days per week began 4 weeks after resection, with weekly IVIS imaging. Animals were excluded from the analysis if they died and/or met the criteria for euthanasia in the 7 day post-operative period. Experimental groups were randomly assigned based upon size of primary tumor before treatment, in and manner that ensured equal distribution of tumor sizes across treatment groups.

[6] = system: phosphoproteins in PC3 cells; assay: PhosphoScan LC-MS/MS of BL4176 immunoprecipitates; format: cell-based, human
Description: The Kinoview™ and PhosphoScan™ assays were performed by Cell Signaling Technology Inc.
Supplementary Figure 12. Identification of the 83 kDa band using a proteomic approach.
(a) PC3 cells were pre-treated with 10 µM KBU2046 or vehicle (control) for 3 days, then treated with TGFβ for 1 hr, and the resultant cell lysates were subjected to immunoprecipitation with BL4176 (Kinoview® phospho-motif antibody). Proteins bound in this manner were analyzed in replicates of N=2 using PhosphoScan™ technology. This identified 483 unique phosphopeptide assignments from 306 parent proteins, with a mean false discovery rate of 0.30% (estimated via Sorcerer search of composite human database of forward and reverse protein entries). We only considered proteins where the average values for treatment and control were each 3 times that of background. Further, we required each of the N=2 replicate values (used to calculate the average) to be >/= 2.5 fold above background. We were only interested in situations in which protein decreased with KBU2046, and we required that decrease to be >/= 2.5 fold, compared to control.
According to these parameters, there were 19 phospho-proteins whose expression decreased in cells treated with KBU2046, compared to control. These are depicted above. Recognizing that each of these proteins may have value, we elected to remain focused on the 83 kDa protein, and therefore only considered proteins +/- 5 kDa of this value. Only heat shock protein 90 (HSP90)β

200 different kinases = assay: Kinex kinase assay system; format: biochemical, human; conditions: 1 and 10 μM; 10 μM interfered with readout
Excerpt: (§5) There were two initial false positives (for a false positive rate of 0.4%), that were subsequently found to be negative in a dedicated follow up analysis. Specific and important negative findings include MKK4, p38 MAPK (α, β, γ and δ […]
(§6) by competing for phospho-acceptor binding.
(§7) Kinase assay system #2. The Kinex™ kinase assay system (Kinexus Proteomics Company).
(§8) This platform uses recombinant human protein kinases expressed in an insect expression system, thus allowing an avenue for post-translational modification. Also, this platform measures inhibition of ATP binding. This platform putatively measured 200 different kinases, and we […]
(§9) tested KBU2046 at 1 and 10 μM. […] There were two […]
(§10) important technical issues. First, at 10 μM KBU2046 interfered with the colorimetric-based […]
(§11) However, while considering the above factors, this screen was informative for a number of […]
(§12) function by competing for ATP binding in the active site.
(§13) Kinase assay system #3. KinaseProfiler™ and PhosphataseProfiler™ assay platforms (Millipore). This platform is radiometric-based (considered gold standard). It measures competition with respect to ATP for kinases and substrate protein for phosphatases. Most proteins were expressed via an insect-based system, and it evaluates a panel of 284 kinases and 20 phosphatases. There were two initial false positives, for a false positive rate of 0.7%, but both […]

[7] = system: 284 kinases and 20 phosphatases; assay: KinaseProfiler and PhosphataseProfiler assay platforms; format: biochemical
Excerpt: as §5, §6, §7, §8, §9, §10, §11, §12, §13

RAF1 = RAF1 protein expression, western blot; format: cell-based, human; conditions: in cells
Description: Fig. 6 KBU2046-mediated changes in the signature of client proteins bound to the HSP90β/CDC37 heterocomplex mediate effects upon cell motility. a LUMIER assay. HEK293T cells were transfected with 1 of 420 different protein kinases, treated with 10 µM KBU2046 (N = 5 replicates) or vehicle control (N = 5) for 3 days, and LUMIER assays performed. The N = 17 kinases that gave significant findings (Student’s t-test <0.05) in the same direction in each of two separate experiments are depicted. […] All experiments were repeated at separate times at least once, with similar results
Western blots were performed as described by us[32]. All western blots were repeated at least once. Uncropped scans of the most important blots are depicted in Supplementary Fig. 19.

O=C1c2ccccc2OCC1c1ccc(F)cc1 (racemic) [KBU2046, (±)-3(4-fluorophenyl)chroman-4-one]
viability at 3 days, 50 µM [1]: 100% | IC20 (PC3M; Homo sapiens, PC-3M, 72 h, PC3M, concentration inhibiting cell growth by 20% after 3 days): > 50 µM | IC50 (PC3M; Homo sapiens, PC-3M, 72 h, PC3M, concentration inhibiting cell growth by 50% after 3 days): > 50 µM | cell growth inhibition (PC3M; PC3-M cells, three day MTT, SAR rounds): no growth inhibitory | viability at 3 days, 50 µM [2]: 88.1% | IC20 (PC3): > 50 µM | IC50 (PC3): > 50 µM | viability at 3 days, 50 µM [3]: 107% | IC20 (1542NPTX): > 50 µM | IC50 (1542NPTX): > 50 µM | viability at 3 days, 50 µM [4]: 99.4% | IC20 (1532CPTX): > 50 µM | IC50 (1532CPTX): > 50 µM | survival [5]: significantly prolonged the survival | fold change, MFAP1 ([6]; AALDALNT*DDENDEEEYEAWK): -21.8 fold | fold change, UBL5 ([6]; CNT*DDTIGDLKK): -2.9 fold | fold change, PITSLRE ([6]; DLLS*DLQDIS*DSER): -3.3 fold | fold change, VAMP1 ([6]; DQKLS*ELDDR): -3.6 fold | fold change, PIMT ([6]; DRPHAS*GT*DGDES*EEDPPEHKPSK): -4.7 fold | fold change, PIMT ([6]; DRPHASGT*DGDES*EEDPPEHKPSK): -3.0 fold | fold change, HSP90B ([6]; EIS*DDEAEEEKGEKEEEDKDDEEKPK): -6.6 fold | fold change, FIP1L1 ([6]; ERDHS*PTPSVFNS*DEER): -2.9 fold | fold change, IWS1 ([6]; GHHVT*DSENDEPLNLNAS*DSESEELHR): -3.2 fold | fold change, NIN ([6]; HVLS*DLEDDEVR): -3.1 fold | fold change, PGRMC2 ([6]; LLKPGEEPS*EYT*DEEDTKDHNK, PC3, 10 µM 3 days, TGFβ 1 hr): -2.5 fold | fold change, LEO1 ([6]; MQNT*DDEERPQLS*DDER): -3.4 fold | fold change, NudC ([6]; NGSLDSPGKQDT*EEDEEEDEKDKGK): -2.5 fold | decrease in abundance of phosphorylated Ser226 on HSP90β ([6]; PC3 cells, KBU2046 then TGFβ): 6.6 fold | fold change, BAT2D1 ([6]; S*ES*SDFEVVPK): -2.7 fold | fold change, RBM5 ([6]; SEDGYHS*DGDYGEHDYR): -2.7 fold | fold change, CLASP2 ([6]; SRS*DIDVNAAAGAK): -2.4 fold | fold change, SSB ([6]; TKFAS*DDEHDEHDENGATGPVK): -4.5 fold | fold change, SEC62 ([6]; VGPGNHGTEGS*GGERHS*DTDS*DRR): -2.8 fold | fold change, SEC62 ([6]; VGPGNHGTEGSGGERHS*DT*DSDRR): -2.6 fold | inhibition of ATP binding (200 different kinases): completely negative | inhibition of phosphatase activity ([7]; 20 phosphatases): No evidence supports inhibition | inhibition of kinase activity ([7]; radiometric, 284 kinases): no evidence that KBU2046 inhibits | RAF1 protein expression levels (RAF1): did not alter RAF1 protein expression levels
